From patent US6713444B1 (priority 1999, dated 2004)
Ends that are not written are not given here.

Legend:
[1] = target: BttxB (Clostridium botulinum, UniProt P10844); type: biochemical
[2] = rat, in vivo, ip
[3] = system: Bttxs; settings: cited from earlier work

Sequence of BttxB (P10844 2-441 limits assumed): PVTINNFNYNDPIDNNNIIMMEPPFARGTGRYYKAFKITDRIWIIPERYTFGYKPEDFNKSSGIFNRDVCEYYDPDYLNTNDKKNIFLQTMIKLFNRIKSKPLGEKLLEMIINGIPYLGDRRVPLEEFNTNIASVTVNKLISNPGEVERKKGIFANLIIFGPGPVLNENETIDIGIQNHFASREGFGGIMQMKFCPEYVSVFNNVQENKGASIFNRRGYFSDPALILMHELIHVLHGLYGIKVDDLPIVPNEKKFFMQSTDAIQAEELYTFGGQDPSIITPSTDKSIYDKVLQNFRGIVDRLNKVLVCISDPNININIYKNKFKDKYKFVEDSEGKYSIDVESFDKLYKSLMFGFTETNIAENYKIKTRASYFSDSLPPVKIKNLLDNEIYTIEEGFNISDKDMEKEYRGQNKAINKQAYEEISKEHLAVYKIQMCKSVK

**Q.** For `CC(C)C[C@H](NC(=O)CNC(=O)[C@H](C)NC(=O)[C@H](CCCNC(=N)N)NC(=O)[C@H](CO)NC(=O)[C@H](CO)NC(=O)[C@H](CCCNC(=N)N)NC(=O)[C@@H](NC(=O)[C@H](CCCCN)NC(=O)[C@H](C)NC(=O)[C@H](CCCCN)NC(=O)[C@H](C)NC(=O)[C@H](CCCNC(=N)N)NC(=O)[C@@H](NC(=O)[C@H](CCCCN)NC(=O)CNC(=O)CNC(=O)[C@H](CCC(N)=O)NC(=O)[C@H](CCCCN)NC(=O)CNC(=O)[C@H](CCCNC(=N)N)NC(=O)CNC(=O)[C@H](C)N)C(C)C)[C@@H](C)O)C(=O)N[C@@H](CCC(N)=O)C(=O)N[C@@H](Cc1ccccc1)C(=O)N1CCC[C@H]1C(=O)N[C@H](C(=O)NCC(=O)N[C@@H](CCCNC(=N)N)C(=O)N[C@H](C(=O)N[C@@H](Cc1c[nH]cn1)C(=O)N[C@@H](CCCNC(=N)N)C(=O)N[C@@H](CC(C)C)C(=O)N[C@@H](CC(C)C)C(=O)N[C@@H](CCCNC(=N)N)C(=O)N[C@@H](CCCCN)C(=O)NCC(=O)N[C@@H](CC(N)=O)C(=O)N[C@@H](Cc1ccc(O)cc1)C(=O)O)C(C)C)C(C)C` [Buforin I], which “inhibition of BttxB endoprotease activity (in words)” value [1] is on record?
**A.** dose-dependency and competitively inhibits

**Q.** What about the “substrate of BttxB” value [1] of the same molecule?
**A.** not to be a substrate

**Q.** What about the “Plateau (time to reach maximal-plateau level)” value [2] of the same molecule?
**A.** ≤ 40 min

**Q.** What about the “time the maximal-plateau level was maintained” value [2] of the same molecule?
**A.** up to 4 h

**Q.** What about the “time to reach ½ the absorbed maximal value” [2] of the same molecule?
**A.** 7.7 min

**Q.** Which “inhibition of Bttxs (in words)” value [3] does the source give for `C[C@H](CS)C(=O)N1CCC[C@H]1C(=O)O` [captopril] here?
**A.** not effective inhibitors

**Q.** For `CC(C)C[C@H](NP(=O)(O)O[C@@H]1O[C@@H](C)[C@H](O)[C@@H](O)[C@H]1O)C(=O)N[C@@H](Cc1c[nH]c2ccccc12)C(=O)O` [phosphoramidon], which “inhibition of Bttxs (in words)” value [3] is on record?
**A.** not effective inhibitors

**Q.** With “AlaGlyArgGlyLysGlnGlyGlyLysValArgAlaLysAlaLysThrArgSerSerArgAlaGlyLeuGlnPheProValGlyArgValHisArgLeuLeuArglys [Peptide 36]” as the molecule, how does the “effectiveness as inhibitor of BttxB activity relative to B-I” value [1] read?
**A.** about 50%

**Q.** And the “substrate of BttxB” value [1]?
**A.** not substrates

**Q.** Which “substrate of BttxB” value [1] does the source give for Substance P [reference compound] here?
**A.** not a substrate

**Q.** With TRSRAKGLQFPGLLVHRKGNY [OSP] as the molecule, how does the “inhibition of BttxB endoprotease activity (in words)” value [1] read?
**A.** inhibition

**Q.** Which “effectiveness as inhibitor of BttxB activity relative to B-I” value [1] does the source give for “ThrArgSerSerArgAlaGlyLeuGlnPheProValGlyArgValHisArgLerLeuArgLysGlyAsnTyr [Peptide 24]” here?
**A.** about 25%

**Q.** And the “substrate of BttxB” value [1]?
**A.** not substrates
